Test results: PMC9574927 (Journal of Medicinal Chemistry, 2022)

What was measured:
[1] = mouse
[2] = in vivo; details: male, CD-1, mouse, po, 100 mg/kg
[3] = target: SARS-CoV-2 M^pro (Severe acute respiratory syndrome coronavirus 2, UniProt P0DTD1); format: biochemical

In the case of CC(C)(C)OC(=O)Nc1cccn([C@@H](CC2CC2)C(=O)N[C@@H](C[C@@H]2CCNC2=O)C(=O)C(=O)NCc2ccccc2)c1=O [Compound 13b-K, tert-Butyl (1-((S)-1-(((S)-4-(Benzylamino)-3,4-dioxo-1-((S)-2-oxopyrrolidin-3-yl)butan-2-yl)amino)-3-cyclopropyl-1-oxopropan-2-yl)-2-oxo-1,2-dihydropyridin-3-yl)carbamate], the “lung tissue Cmax” value ([1]; 25 mg/kg inhalative) is reported as 261,748 ± 1294.4 ng/g, the “time of first appearance in plasma and urine post administration” value ([1]; 25 mg/kg inhalative) is reported as no more than 15 min and the “BALF concentrations at 5 h post administration (in words)” value ([1]; 100 mg/kg peroral, DOPS LUV formulation) is reported as “in the same range as after inhalative administration of 25 mg/kg”. For the same molecule, the “time up to which found in plasma and lung tissue” value ([1]; single inhalative dose 25 mg/kg) was “up to 24 h” and the CL/F [2] was 1160 mL/min/kg.
In the case of CC(C)(C)OC(=O)Nc1cccn([C@H](CC2CC2)C(=O)N[C@@H](C[C@@H]2CCNC2=O)C(=O)C(=O)NCc2ccccc2)c1=O [Compound 13b-H, tert-Butyl (1-((R)-1-(((S)-4-(Benzylamino)-3,4-dioxo-1-((S)-2-oxopyrrolidin-3-yl)butan-2-yl)amino)-3-cyclopropyl-1-oxopropan-2-yl)-2-oxo-1,2-dihydropyridin-3-yl)carbamate], the “activity against Mpro in words” value [3] is reported as “nearly inactive”.
